Assay results taken from patent publication US11596639B2, “Substituted indole Mcl-1 inhibitors” (Vanderbilt University, priority 2016, dated 2023).

Columns and labels:
[1] = molecular target: Mcl-1 (Homo sapiens (Human), UniProt Q07820); assay: TR-FRET binding assay, FITC-Bak peptide and MBP-tagged Mcl-1; settings: read-out: Ki for Inhibition of Mcl-1 by TR-FRET assay
Protocol: Compounds are diluted in DMSO in a 16-point, semilog serial dilution scheme. […] The plate was mixed and incubated for 3 hours at room temperature. […] TR-FRET signal is plotted and IC50 and Ki values are calculated in the same manner as the fluorescence polarization anisotropy based competition assays.

[2] = test system: H929 human cancer cell lines; assay: Cellular viability / proliferation (Cell TiterGlo, 72 h); format: cell-based; settings: Homo sapiens, NCI-H929, 72 h, read-out: GI50 on cellular proliferation of H929 human cancer cell lines, H929 cells, 72 h, Cell TiterGlo, 10% FBS
Method in brief: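 Top dose 50 μM, serially diluted 2-fold, applied one day after seeding (1,000 cells/well, 10% FBS), DMSO below 1%.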

Mcl-1, sequence (Q07820 172-327): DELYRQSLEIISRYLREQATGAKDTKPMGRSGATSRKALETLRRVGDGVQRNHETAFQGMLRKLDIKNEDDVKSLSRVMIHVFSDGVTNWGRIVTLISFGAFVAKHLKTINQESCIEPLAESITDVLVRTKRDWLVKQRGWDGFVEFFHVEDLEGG

SMILES | Ki [1] | GI50 [2]
COCCOCCn1c(C(=O)O)cc2cc(C)cc(N3C[C@@H](C)n4c(c(CCCOc5cc(C)c(Cl)c(C)c5)c5ccc(Cl)c(-c6c(C)nn(C)c6C)c54)C3=O)c21 [Example 678, (R)-7-(7-chloro-10-(3-(4-chloro-3,5-dimethylphenoxy)propyl)-4-methyl-1-oxo-6-(1,3,5-trimethyl-1H-pyrazol-4-yl)-3,4-dihydropyrazino[1,2-a]indol-2(1H)-yl)-1-(2-(2-methoxyethoxy)ethyl)-5-methyl-1H-indole-2-carboxylic acid] | 0.22 nM | < 200 nM
Cc1cc(N2C[C@@H](C)n3c(c(CCCOc4cc(C)c(Cl)c(C)c4)c4ccc(Cl)c(-c5c(C)nn(C)c5C)c43)C2=O)c2c(c1)cc(C(=O)O)n2CCO [Example 657, (R)-7-(7-chloro-10-(3-(4-chloro-3,5-dimethylphenoxy)propyl)-4-methyl-1-oxo-6-(1,3,5-trimethyl-1H-pyrazol-4-yl)-3,4-dihydropyrazino[1,2-a]indol-2(1H)-yl)-1-(2-hydroxyethyl)-5-methyl-1H-indole-2-carboxylic acid] | < 0.2 nM | 610 nM
Cc1cc(OCCCc2c3n(c4c(-c5c(C)nn(C)c5C)c(Cl)ccc24)[C@H](C)CN(c2cc(Oc4ccccn4)cc4cc(C(=O)O)n(C)c24)C3=O)cc(C)c1Cl [Example 522, (R)-7-(7-Chloro-10-(3-(4-chloro-3,5-dimethylphenoxy)propyl)-4-methyl-1-oxo-6-(1,3,5-trimethyl-1H-pyrazol-4-yl)-3,4-dihydropyrazino[1,2-a]indol-2(1H)-yl)-1-methyl-5-(pyridin-2-yloxy)-1H-indole-2-carboxylic acid] | 0.32 nM | 750 nM
Cc1cc(OCCCc2c3n(c4c(-c5c(C)nn(C)c5C)c(Cl)ccc24)[C@H](C)CN(c2cc(COCCN4CCOCC4)cc4cc(C(=O)O)n(C)c24)C3=O)cc(C)c1Cl [Example 693, (R)-7-(7-chloro-10-(3-(4-chloro-3,5-dimethylphenoxy)propyl)-4-methyl-1-oxo-6-(1,3,5-trimethyl-1H-pyrazol-4-yl)-3,4-dihydropyrazino[1,2-a]indol-2(1H)-yl)-1-methyl-5-((2-morpholinoethoxy)methyl)-1H-indole-2-carboxylic acid] | < 0.2 nM | 210 nM
Cc1ccnc(Cn2c(C(=O)O)cc3cc(OCCN(C)C)cc(N4C[C@@H](C)n5c(c(CCCOc6cc(C)c(Cl)c(C)c6)c6ccc(Cl)c(-c7c(C)ncnc7C)c65)C4=O)c32)c1 [Example 584, (R)-7-(7-chloro-10-(3-(4-chloro-3,5-dimethylphenoxy)propyl)-6-(4,6-dimethylpyrimidin-5-yl)-4-methyl-1-oxo-3,4-dihydropyrazino[1,2-a]indol-2(1H)-yl)-5-(2-(dimethylamino)ethoxy)-1-((4-methylpyridin-2-yl)methyl)-1H-indole-2-carboxylic acid] | < 0.2 nM | 1000 nM
Cc1cc(OCCCc2c3n(c4c(-c5c(C)nn(C)c5C)c(Cl)ccc24)[C@H](C)CN(c2cc(NCCN(C)C)cc4c(C(=O)O)cn(C)c24)C3=O)cc(C)c1Cl [Example 498, (R)-7-(7-chloro-10-(3-(4-chloro-3,5-dimethylphenoxy)propyl)-4-methyl-1-oxo-6-(1,3,5-trimethyl-1H-pyrazol-4-yl)-3,4-dihydropyrazino[1,2-a]indol-2(1H)-yl)-5-((2-(dimethylamino)ethyl)amino)-1-methyl-1H-indole-3-carboxylic acid] | 0.58 nM | 1900 nM
COc1ccc(N2C[C@@H](C)n3c(c(CCCOc4cc(C)c(Cl)c(C)c4)c4ccc(Cl)c(-c5c(C)nn(C)c5C)c43)C2=O)c2c1cc(C(=O)O)n2Cc1cccc(C)n1 [Example 593, (R)-7-(7-chloro-10-(3-(4-chloro-3,5-dimethylphenoxy)propyl)-4-methyl-1-oxo-6-(1,3,5-trimethyl-1H-pyrazol-4-yl)-3,4-dihydropyrazino[1,2-a]indol-2(1H)-yl)-4-methoxy-1-((6-methylpyridin-2-yl)methyl)-1H-indole-2-carboxylic acid] | < 0.2 nM | < 200 nM
